What was measured:
[1] = test system: human dermal microvascular endothelial cells; experiment: Endothelial cell migration assay (modified Boyden chamber), human dermal microvascular endothelial cells; format: cell-based; settings: VEGF 200 pg/ml gradient; FIG. 7
Protocol: (§1) The cells were plated on gelatinized Nucleopore membranes (5 μm pores for bovine capillary cells and 8 μm pores for other cells) in an inverted modified Boyden chamber. After two hours, the chamber was reinverted and test substances added to the top wells of each. Specifically, populations were exposed to either culture medium alone (control), 10 ng/ml bFGF, 2 nM PEDF (full length PEDF), or both 10 ng/ml bFGF (basic fibroblast growth factor) and 10 nM PEDF. The cells were then permitted to migrate for 3-4 hours. Following this, the membranes were fixed and stained, and the number of cells that had migrated were counted.
Additional truncated peptides derived from PEDF were tested for efficacy in the endothelial cell migration assay using human dermal microvascular endothelial cells (Clonetics, Cell Systems) at passage 9 in a modified Boyden Chamber, as described above, and the results are shown in FIG. 7. In FIG. 7A, the cells were exposed to the gradient of VEGF in the presence of purified recombinant PEDF (rPEDF), bacterially produced PEDF (BH) or PEDF peptides containing only amino acid residues 78-121 (44-mer) and 44-77 (34-mer) referring to SEQ ID NO:1. Neutralizing antibodies were added where shown to verify if the anti-angiogenic effect is specific to PEDF peptides and not due to contamination. Both full length PEDF preparations were used at 25 nM, neutralizing polyclonal antiserum against PEDF was used at 1:200 dilution, recombinant human VEGF (R&D Systems) at 200 pg/ml. In FIG. 7B, the cells were exposed to the gradient of VEGF in the presence of increasing concentrations of 34-mer and 44-mer peptides. The antiserum used in this experiment was not affinity purified, whereas the antiserum used in all other experiments presented herein was affinity purified.

[2] = test system: bovine adrenal capillary endothelial cells; experiment: Endothelial cell migration assay (modified Boyden chamber), bovine adrenal capillary endothelial cells; format: cell-based; settings: migration towards bFGF; FIGS. 4 and 5
Protocol: as §1
The amount of a given factor necessary to achieve 50% of migration was determined and is reported here as ED50.
In particular, aFGF was employed at a concentration of 50 ng/ml, bFGF was employed at a concentration of 10 ng/ml, IL-8 was employed at a concentration of 40 ng/ml, PDGF was employed at a concentration of 250 pg/ml, and VEGF was employed at a concentration of 100 pg/ml.
In studies aimed at identifying antiangiogenic factors in the eye that might be regulated by the retinoblastoma tumor suppressor gene (Rb), media was fractionated where the media was previously conditioned by a retinoblastoma cell line that had been infected with a retrovirus expressing the wild-type Rb gene, WERI-Rb-27R. (Xu et al., 1991, Cancer Res. 51:4481). […] PEDF was purified from WERI-Rb-27R serum-free conditioned media by sequential steps consisting of dialysis (molecular mass cutoff, 30 kD) against distilled water, 60 to 95% ammonium sulfate precipitation, step elution from lentil lectin Sepharose 4B (Pharmacia) with 0.5 M α-methyl-D-mannopyranoside, and elution from a HiTrap heparin Sepharose column (Pharmacia) with increasing NACl gradient. (Xu, et al., 1991, Cancer Res. 51:4481). […] Migration assays were performed in quadruplicate for each sample with bovine adrenal capillary endothelial cells or human dermal microvascular endothelial cells (Clonetics, San Diego, Calif.) as described. (Polverini, et al., 1991, Methods Enzymol. 198:440). To combine multiple experiments, background migration (Bkgd) was first subtracted toward vehicle (0.1% bovine serum albumin) and them normalized data by setting maximum migration toward inducer alone to 100%. All experiments were repeated two to five times. Statistics were performed on raw data before normalization with the Student's t test. Standard errors were converted to percentages. […] Single-letter abbreviations for the amino acid residues are as follows: A, Ala; D, Asp; E. Glu; F. Phe; G, Gly; I, Ile; L, Leu; M, Met; P, Pro; Q, Gln; R, Arg; S, Ser; T, Thr; V, Val; X, any amino acid; and Y, Tyr.

44 amino acid peptide: PEDF peptide containing only amino acid residues 78-121 of SEQ ID NO:1 (VLLSPLSVATALSALSLGADERTESIIHRALYYDLISSPDIHGT; listed as Homo Sapiens)
anti-angiogenic activity (block of migration towards VEGF) [1]: not active as an anti-angiogenic agent

MQALVLLLCIGALLGHSSCQNPASPPEEGSPDPDSTGALVEEEDPFFKVPVNKLAAAVSNFGYDLYRVRSSMSPTTNVLLSPLSVATALSALSLGADERTESIIHRALYYDLISSPDIHGTYKELLDTVTAPQKNLKSASRIVFEKKLRIKSSFVAPLEKSYGTRPRVLTGNPRLDLQEINNWVQAQMKGKLARSTKEIPDEISILLLGVAHFKGQWVTKFDSRKTSLEDFYLDEERTVRVPMMSDPKAVLRYGLDSDLSCKIAQLPLTGSMSIIFFLPLKVTQNLTLIEESLTSEFIHDIDRELKTVQAVLTVPKLKLSYEGEVTKSLQEMKLQSLFDSPDFSKITGKPIKLTQVEHRAGFEWNEDGAGTTPSPGLQPAHLTFPLDYHLNQPFIFVLRDTDTGALLFIGKILDPRGP [34 amino acid peptide]
anti-angiogenic activity (block of migration towards VEGF) [1]: active as an anti-angiogenic agent

B1: truncated peptide: trypsin-truncated PEDF missing the approximately 3-5 kDa carboxy-terminal portion (protein, listed as Homo Sapiens)
chain: NPASPPEEGSPDPDSTGALVEEEDPFFKVPVNKLAAAVSNFGYDLYRVRSSMSPTTNVLLSPLSVATALSALSLGADERTESIIHRALYYDLISSPDIHGTYKELLDTVTAPQKNLKSASRIVFEKKLRIKSSFVAPLEKSYGTRPRVLTGNPRLDLQEINNWVQAQMKGKLARSTKEIPDEISILLLGVAHFKGQWVTKFDSRKTSLEDFYLDEERTVRVPMMSDPKAVLRYGLDSDLSCKIAQLPLTGSMSIIFFLPLKVTQNLTLIEESLTSEFIHDIDRELKTVQAVLTVPKLKLSYEGEVTKSLQEMKLQSLFDSPDFSKITGKPIKLTQVEHRAGFEWNEDGAGTTPSPGLQPAHL
potency at inhibiting endothelial cell migration, dose response [2]: similarly potent at inhibiting endothelial cell migration
